# From patent US12589103B2, “Antimicrobial and antiviral effects of C2-C7 alkyl boronic acids” (CORNELL UNIVERSITY, priority 2019, dated 2026)
# “Also recorded” adds a separate entry of the source.
# Columns and labels:
# FIPV = details: known drugs; cited from earlier work
# [1] = target: T1, 3CL protease of the FIP virus (Feline coronavirus, UniProt Q98VG9); details: cited from earlier work
# T1 construct: 3CL protease of the FIP virus
# [2] = tested on: Feline Infectious Peritonitis Virus (FIPV) Black (TN-406); assay: FIPV replication and syncytium formation, immunofluorescence; type: cell-based, Feline Coronavirus type I; details: 10, 20, 30, 40 mM; Feline Lung cells, 18 h post-infection
# [3] = tested on: diarrheagenic E. coli and APEC; assay: Growth of diarrheagenic and APEC E. coli in LB media; type: cell-based; details: 30 mM
# Method: (§1) The control sample contained 40 mM NaCl.
# Diarrheagenic E. coli pathogroups differ by their preferential host colonization sites, virulence mechanisms, and clinical symptoms.
# [4] = tested on: probiotic Lactobacillus spp; assay: Growth of probiotic Lactobacillus strains; details: three Lactobacillus strains
# [5] = tested on: AIEC E. coli isolated from people (MDR and non-MDR strains); assay: Growth of MDR and non-MDR E. coli associated with Crohn's disease; type: cell-based; details: 40 mM, LB broth, 48 hrs
# Method: (§2) The ability of C1-C3 alkyl boronic acids and BA to impact the growth of MDR E. coli isolated from people and dogs was evaluated using a temperature controlled 96-well multiplate incubator at 37° C. over 48 hrs. Growth in media (LB broth) with and without ABA C2-6 (40 mM) was monitored by readings at OD600 with the AUC of the growth curve calculated.
# AIEC 541-1 and LF82 = assay: Adhesion and invasion of Caco-2 cells by AIEC; type: cell-based, E. coli; details: 30 mM, m.o.i 10, 3 h
# Method: E. coli was cultured overnight in LB at 37° C. with shaking. Bacterial pellets were re-suspended in PBS before dilution in cell culture media±30 mM boronic acid or alkyl boronic acid to an m.o.i (multiplicity of infection) of 10. Caco-2 cells were infected with the diluted E. coli for 3 h at 37° C. before washing with PBS, then lysed with 1% Triton X-100. Serial dilutions of the lysates were made in PBS and plated on LB agar. The total number of colonies recovered was used to calculate the number of adherent bacteria. For invasion assays, cells were treated with gentamicin (100 μg mL−1) for one hour after initial infection and 3× wash with PBS to kill extracellular bacteria. Cells were then washed 3× after gentamicin treatment, lysed and plated as described above.
# nF-κB = assay: E. coli induced nF-κB activation in HEK-Blue KD-TLR5 cells (SEAP reporter); type: cell-based; details: m.o.i 20, SEAP at 24 h
# Method: HEK-Blue KD-TLR5 cells were used to detect the promotor activation of nF-κB by E. coli infection with or without boric or boronic acid treatment. nF-κB is the prototypical transcription factor for pro-inflammatory cytokines in epithelium. Briefly, cells were seeded in 96-well plates at a density of 5×10^4 cells per well. E. coli was diluted into fresh cell medium containing either NaCl (Control), boric or boronic acid at an m.o.i of 200 as 10× inocula, followed by addition of this inoculum (10 μl) into each well containing 100 μl of medium for a final m.o.i of 20. At 3 h post infection, the cell medium was carefully removed from each well, and replaced with 100 μl of fresh medium containing gentamycin (200 μg mL^−1). At 24 h post infection, the spent medium was collected, and centrifuged at 12,000 r.p.m. for 5 min to remove any particulate matter. QUANTI-Blue Kit (InvivoGen, San Diego, CA, USA) was used to detect the reporter protein SEAP (secreted alkaline phosphatase) following the manufacturer's instructions.
# [6] = tested on: AIEC E. coli from dogs (MDR and non-MDR strains); assay: Growth of MDR and non-MDR E. coli associated with Granulomatous colitis in dogs; type: cell-based; details: 40 mM, LB broth, 48 hrs
# Method: as §2
# Non-MDR strains KD1, KD2, and KD3 were also evaluated.
# [7] = tested on: typhoid toxin B subunit (CdtB); type: cell-based, Salmonella typhi
# [8] = tested on: AIEC and cancer associated E. coli; assay: Soft agar motility assay, E. coli; type: cell-based; details: 10 h, AIEC NC101, 541-1, cancer associated E. coli
# Method: (§3) The ability of ABA C1-3 and BA to impact the motility of E. coli and Salmonella was evaluated using sloppy agar treated with and without BA and C1-C3 alkyl boronic acids. Motility is strongly linked to the virulence phenotype of these bacterial strains. E. coli was grown overnight at 37° C. in LB broth. Soft agar plates (1% tryptone, 0.5% NaCl, 0.25% agar) were prepared the day before the assay was carried out. Sterile NaCl (control), boric or boronic acid stock solution was added into the agar right before pouring the plates. The overnight cultures of E. coli were transferred (3 μl) on to the center of each plate, followed by incubation of the plates at 37° C. for 10 h. E. coli motility was quantified by measuring the diameter of the circular swarming area formed by the growing motile bacteria.
# Salmonella [9] = assay: Growth of five Salmonella strains; type: cell-based
# Method: as §1
# [10] = tested on: AIEC in murine macrophage J774A.1 cells; assay: Uptake and survival of AIEC in J774A.1 macrophages; type: cell-based, E. coli
# Salmonella [11] = assay: Soft agar motility assay, Salmonella; type: cell-based; details: % motility of the control
# Method: as §3
# T1 sequence (Q98VG9 2904-3205): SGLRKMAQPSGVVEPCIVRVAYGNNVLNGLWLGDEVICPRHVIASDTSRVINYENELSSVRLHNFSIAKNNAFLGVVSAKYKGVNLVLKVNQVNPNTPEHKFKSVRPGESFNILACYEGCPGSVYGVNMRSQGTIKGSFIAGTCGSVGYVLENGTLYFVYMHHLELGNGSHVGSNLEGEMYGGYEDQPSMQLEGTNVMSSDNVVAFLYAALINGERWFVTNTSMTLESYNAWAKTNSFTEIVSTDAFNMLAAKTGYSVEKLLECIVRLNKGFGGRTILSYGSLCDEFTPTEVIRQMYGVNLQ
Compound,efficacy against FIPV (FIPV),inhibition of FIP virus 3CL protease [1],degree of cytopathic effect (Caco-2 cells),replication and syncytium formation of FIPV [2],cytotoxicity in antiviral assay (Feline Lung cells),inhibition of growth of diarrheagenic and APEC E. coli [3],growth of probiotic Lactobacillus spp [4],"growth inhibition of Crohn's disease associated AIEC, MDR and non-MDR [5]",adhesion and invasion of Caco-2 by AIEC (AIEC 541-1 and LF82),induction of nF-κB by E. coli (nF-κB),"growth inhibition of canine Granulomatous colitis associated AIEC, MDR and non-MDR [6]",typhoid toxin (CdtB) production [7],motility of E. coli [8],inhibition of growth of Salmonella serovars (Salmonella [9]),"survival of AIEC in J774A.1 macrophages ([10]; 30 mM during infection, 24 h post infection)","uptake of AIEC by J774A.1 macrophages ([10]; 30 mM, 1 h)",motility of Salmonella (Salmonella [11])
CC(C)C[C@H](NC(=O)OCc1ccccc1)C(=O)N[C@@H](C[C@@H]1CCNC1=O)C(O)S(=O)(=O)[O-].[Na+] (some centres unmarked) [GC376],some efficacy against FIPV,inhibited,–,–,–,–,–,–,–,–,–,–,–,–,–,–,–
CCCB(O)O [PBA],–,–,EBA<BA<PBA,inhibited replication and syncytium formation of FIPV in infected cells,Cytotoxicity was not observed at antiviral doses,have activity versus the diarrheagenic E. coli and APEC that varies by pathogroup; also recorded: more effective in inhibiting bacterial growth than BA overall,do not suppress growth,"more effective than BA over a wider range of AIEC, including MDR and non-MDR strains",suppress adhesion and invasion of Caco-2 by AIEC 541-1 and LF82,reduced the induction of nF-κB by E. coli,"more effective than BA over a wider range of AIEC, including MDR and non-MDR strains",inhibition of toxin production (CdtB),highly effective at blocking motility of AIEC and cancer associated E. coli,inhibit the growth of multiple serovars of Salmonella more effectively than BA,inhibited the survival,inhibited the uptake,highly effective at blocking motility of Salmonella
